Assay results as given in PubChem BioAssay AID248 (DTP/NCI, 2004).
“And” between values parts separate entries of the source, which are not always exact repeats. Equal values may be shown once. Inconclusive results and toxic doses are left out.

Test system: L1210 leukemia ip in BDF1 mice, survival T/C
Experiment: NCI In Vivo Anticancer Drug Screen. Data for tumor model L1210 Leukemia (intraperitoneal) in B6D2F1 (BDF1) mice
Details: endpoint: mean survival time, higher = longer survival
In short: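 Mice bearing the transplanted tumor received compound or vehicle. Survival of the treated group was divided by that of the vehicle-treated control group to give the ratio.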

[1] = dose: 100.0 mg/kg/injection, schedule: Q04DX003 (ip), vehicle: Klucel (hydroxypropylcellulose) (HPC)
[2] = dose: 200.0 mg/kg/injection, schedule: Q04DX003 (ip), vehicle: Klucel (hydroxypropylcellulose) (HPC)
[3] = dose: 100.0 mg/kg/injection, schedule: Q01DX001 (ip), vehicle: Klucel (hydroxypropylcellulose) (HPC)
[4] = dose: 100.0 mg/kg/injection, schedule: Q01DX009 (ip), vehicle: Klucel (hydroxypropylcellulose) (HPC)
[5] = dose: 200.0 mg/kg/injection, schedule: Q01DX009 (ip), vehicle: Klucel (hydroxypropylcellulose) (HPC)
[6] = dose: 400.0 mg/kg/injection, schedule: Q01DX009 (ip), vehicle: Klucel (hydroxypropylcellulose) (HPC)
[7] = dose: 100.0 mg/kg/injection, schedule: Q01DX001 (ip), vehicle: saline
[8] = dose: 200.0 mg/kg/injection, schedule: Q01DX001 (ip), vehicle: saline
[9] = dose: 400.0 mg/kg/injection, schedule: Q01DX001 (ip), vehicle: saline
[10] = dose: 100.0 mg/kg/injection, schedule: Q04DX003 (ip), vehicle: saline with Tween-80
[11] = dose: 200.0 mg/kg/injection, schedule: Q04DX003 (ip), vehicle: saline with Tween-80
[12] = dose: 400.0 mg/kg/injection, schedule: Q04DX003 (ip), vehicle: saline with Tween-80
[13] = dose: 100.0 mg/kg/injection, schedule: Q04DX003 (ip), vehicle: saline
[14] = dose: 200.0 mg/kg/injection, schedule: Q04DX003 (ip), vehicle: saline
[15] = dose: 200.0 mg/kg/injection, schedule: Q01DX001 (ip), vehicle: Klucel (hydroxypropylcellulose) (HPC)

Structure (SMILES): CS(=O)(=O)CCN(N=O)C(=N)N[N+](=O)[O-]
- T/C (dose: 5.1 mg/kg/injection, schedule: Q01DX Z (ip), vehicle: carboxymethylcellulose (CMC)): 116 % of control
- T/C (dose: 7.7 mg/kg/injection, schedule: Q01DX Z (ip), vehicle: carboxymethylcellulose (CMC)): 116 % of control
- T/C (dose: 8.8 mg/kg/injection, schedule: Q01DX Z (ip), vehicle: methylcellulose (MC)): 121 % of control
- T/C (dose: 11.7 mg/kg/injection, schedule: Q01DX Z (ip), vehicle: carboxymethylcellulose (CMC)): 116 % of control
- T/C (dose: 12.0 mg/kg/injection, schedule: Q01DX Z (sc), vehicle: carboxymethylcellulose (CMC)): 101 % of control
- T/C (dose: 17.7 mg/kg/injection, schedule: Q01DX Z (ip), vehicle: carboxymethylcellulose (CMC)): 123 % of control
- T/C (dose: 20.0 mg/kg/injection, schedule: Q01DX Z (ip), vehicle: methylcellulose (MC)): 117 % of control
- T/C (dose: 24.0 mg/kg/injection, schedule: Q01DX Z (sc), vehicle: carboxymethylcellulose (CMC)): 117 % of control
- T/C (dose: 40.0 mg/kg/injection, schedule: Q01DX Z (ip), vehicle: carboxymethylcellulose (CMC)): 155 % of control
- T/C (dose: 45.0 mg/kg/injection, schedule: Q01DX Z (oral), vehicle: carboxymethylcellulose (CMC)): 106 % of control
- T/C (dose: 48.0 mg/kg/injection, schedule: Q01DX Z (sc), vehicle: carboxymethylcellulose (CMC)): 101 % of control
- T/C (dose: 60.0 mg/kg/injection, schedule: Q01DX Z (ip), vehicle: carboxymethylcellulose (CMC)): 150 % of control
- T/C (dose: 60.0 mg/kg/injection, schedule: Q01DX Z (ip), vehicle: methylcellulose (MC)): 168 % of control
- T/C (dose: 90.0 mg/kg/injection, schedule: Q01DX Z (ip), vehicle: methylcellulose (MC)): 122 % of control
- T/C (dose: 90.0 mg/kg/injection, schedule: Q01DX Z (oral), vehicle: carboxymethylcellulose (CMC)): 105 % of control
- T/C (dose: 96.0 mg/kg/injection, schedule: Q01DX Z (sc), vehicle: carboxymethylcellulose (CMC)): 112 % of control
- T/C (dose: 135.0 mg/kg/injection, schedule: Q01DX Z (ip), vehicle: methylcellulose (MC)): 119 % of control
- T/C (dose: 180.0 mg/kg/injection, schedule: Q01DX Z (oral), vehicle: carboxymethylcellulose (CMC)): 118 % of control
- T/C (dose: 360.0 mg/kg/injection, schedule: Q01DX Z (oral), vehicle: carboxymethylcellulose (CMC)): 114 % of control

Structure (SMILES): CCCC1(CCC)NC(=O)N(CC(=O)OCC)C1=O
- T/C (dose: 100.0 mg/kg/injection, schedule: Q01DX009 (ip), vehicle: saline with Tween-80): 94 % of control
- T/C (dose: 200.0 mg/kg/injection, schedule: Q01DX009 (ip), vehicle: saline with Tween-80): 96 % of control
- T/C (dose: 400.0 mg/kg/injection, schedule: Q01DX009 (ip), vehicle: saline with Tween-80): 102 % of control

Structure (SMILES): O=Cc1ccccc1OCCCC[P+](c1ccccc1)(c1ccccc1)c1ccccc1
- T/C (dose: 5.0 mg/kg/injection, schedule: Q01DX001 (ip), vehicle: saline): 111 % of control
- T/C (dose: 10.0 mg/kg/injection, schedule: Q01DX001 (ip), vehicle: saline): 107 % of control
- T/C (dose: 20.0 mg/kg/injection, schedule: Q01DX001 (ip), vehicle: saline): 102 % of control

Structure (SMILES): COc1ccccc1-n1c(O)c(N=Nc2ccccc2)c(=O)n(-c2ccc(C)cc2)c1=S
- T/C (dose: 50.0 mg/kg/injection, schedule: Q04DX003 (ip), vehicle: Klucel (hydroxypropylcellulose) (HPC)): 100 % of control
- T/C [1]: 98 % of control
- T/C [2]: 102 % of control

Structure (SMILES): CCn1/c(=N\N=O)sc2ccccc21
- T/C [3]: 96 % of control

Structure (SMILES): CCN(CC)Cc1c(O)ccc2c3c(c(=O)oc12)CCCC3
- T/C (dose: 10.0 mg/kg/injection, schedule: Q01DX001 (ip), vehicle: carboxymethylcellulose (CMC)): 103 % of control
- T/C (dose: 20.0 mg/kg/injection, schedule: Q01DX001 (ip), vehicle: carboxymethylcellulose (CMC)): 97 % of control
- T/C (dose: 40.0 mg/kg/injection, schedule: Q01DX001 (ip), vehicle: carboxymethylcellulose (CMC)): 94 % of control
- T/C (dose: 80.0 mg/kg/injection, schedule: Q01DX001 (ip), vehicle: carboxymethylcellulose (CMC)): 96 % of control

Structure (SMILES): CC1=C(C)CC2C(=O)C=CC(=O)C2C1 (stereo not drawn)
- T/C (dose: 50.0 mg/kg/injection, schedule: Q01DX009 (ip), vehicle: water): 97 % of control
- T/C (dose: 100.0 mg/kg/injection, schedule: Q01DX009 (ip), vehicle: water): 97 % of control and 101 % of control
- T/C (dose: 100.0 mg/kg/injection, schedule: Q04DX003 (ip), vehicle: water): 89 % of control
- T/C (dose: 200.0 mg/kg/injection, schedule: Q01DX009 (ip), vehicle: water): 95 % of control
- T/C (dose: 200.0 mg/kg/injection, schedule: Q04DX003 (ip), vehicle: water): 101 % of control

Structure (SMILES): COc1ccc(C(=O)Nc2ccccc2)cc1NC(=O)Nc1ccccc1C(F)(F)F
- T/C [4]: 92 % of control
- T/C [5]: 101 % of control
- T/C [6]: 95 % of control

Structure (SMILES): Oc1ccc2ccccc2c1/C=N/N1CCN(/N=C/c2c(O)ccc3ccccc23)CC1
- T/C [7]: 104 % of control
- T/C [8]: 96 % of control
- T/C [9]: 90 % of control

Structure (SMILES): Cn1c(C(C)(C)O)cc2ccccc21
- T/C [10]: 102 % of control
- T/C [11]: 107 % of control
- T/C [12]: 100 % of control

Structure (SMILES): C(=P(c1ccccc1)(c1ccccc1)c1ccccc1)[P+](c1ccccc1)(c1ccccc1)c1ccccc1.[Br][Cu][Br]
- T/C (dose: 1.56 mg/kg/injection, schedule: Q01DX009 (ip), vehicle: Klucel (hydroxypropylcellulose) (HPC)): 101 % of control
- T/C (dose: 3.13 mg/kg/injection, schedule: Q01DX009 (ip), vehicle: Klucel (hydroxypropylcellulose) (HPC)): 109 % of control
- T/C (dose: 6.25 mg/kg/injection, schedule: Q01DX009 (ip), vehicle: Klucel (hydroxypropylcellulose) (HPC)): 114 % of control

Structure (SMILES): Cc1ccc(S(=O)(=O)CC(=O)c2ccccc2)cc1
- T/C [1]: 100 % of control
- T/C [2]: 107 % of control
- T/C (dose: 400.0 mg/kg/injection, schedule: Q04DX003 (ip), vehicle: Klucel (hydroxypropylcellulose) (HPC)): 102 % of control

Structure (SMILES): O=C(O)c1ccnc(-c2ccc(Cl)cc2)c1
- T/C [13]: 90 % of control
- T/C [14]: 92 % of control

Structure (SMILES): CSc1ccc(NC(=O)N(Cc2ccccc2)c2ccccc2)cc1
- T/C [4]: 106 % of control
- T/C [5]: 101 % of control
- T/C [6]: 95 % of control

Structure (SMILES): Cc1ccc(N=Nc2sc(N)nc2C)cc1
- T/C (dose: 75.0 mg/kg/injection, schedule: Q01DX001 (ip), vehicle: saline): 97 % of control
- T/C (dose: 150.0 mg/kg/injection, schedule: Q01DX001 (ip), vehicle: saline): 102 % of control

Structure (SMILES): Nc1ccccc1Nc1ccc(-c2ccc(Nc3ccccc3N)cc2)cc1
- T/C [7]: 94 % of control
- T/C [8]: 100 % of control
- T/C [9]: 92 % of control

Structure (SMILES): O=C(NCCc1ccc([N+](=O)[O-])cc1)c1ccc(S(=O)(=O)F)cc1
- T/C [3]: 103 % of control
- T/C [15]: 94 % of control
- T/C (dose: 400.0 mg/kg/injection, schedule: Q01DX001 (ip), vehicle: Klucel (hydroxypropylcellulose) (HPC)): 103 % of control

Structure (SMILES): CC(=O)Nc1ccc([N+](=O)[O-])c(NC(C)=O)n1
- T/C [4]: 103 % of control
- T/C [10]: 101 % of control
- T/C [5]: 100 % of control
- T/C [11]: 93 % of control
- T/C [6]: 97 % of control
- T/C [12]: 112 % of control

Structure (SMILES): COc1ccccc1N=Nc1c(O)n(-c2ccccc2C)c(=S)n(-c2ccc(C)cc2)c1=O
- T/C [3]: 101 % of control
- T/C [15]: 93 % of control

Structure (SMILES): O=C1OC(=O)C2C1C13CCCC1=C1CCC34C(=O)OC(=O)C43CC123 (stereo not drawn)
- T/C (dose: 6.25 mg/kg/injection, schedule: Q01DX009 (ip), vehicle: saline): 111 % of control
- T/C (dose: 12.5 mg/kg/injection, schedule: Q01DX001 (ip), vehicle: saline): 115 % of control
- T/C (dose: 12.5 mg/kg/injection, schedule: Q01DX009 (ip), vehicle: saline): 109 % of control
- T/C (dose: 12.5 mg/kg/injection, schedule: Q04DX003 (ip), vehicle: saline): 106 % of control
- T/C (dose: 25.0 mg/kg/injection, schedule: Q01DX001 (ip), vehicle: saline): 107 % of control
- T/C (dose: 25.0 mg/kg/injection, schedule: Q04DX003 (ip), vehicle: saline): 104 % of control
- T/C (dose: 50.0 mg/kg/injection, schedule: Q01DX001 (ip), vehicle: saline): 109 % of control

Structure (SMILES): NC(=O)c1ccc[n+](CC(=O)NCc2ccccc2)c1
- T/C [13]: 96 % of control
- T/C [14]: 93 % of control
